Data reported in ChEMBL document CHEMBL2074499, “Cloning and functional expression of a human liver organic cation transporter” (Mol Pharmacol, 1997).

Experiments:
[1] = biological target: T1, Solute carrier family 22 member 1 (Homo sapiens, UniProt O15245); assay: TP_TRANSPORTER: inhibition of MPP+ uptake in Xenopus laevis oocytes; format: functional, cell-based, Oocyte
T1 sequence (O15245 whole entry): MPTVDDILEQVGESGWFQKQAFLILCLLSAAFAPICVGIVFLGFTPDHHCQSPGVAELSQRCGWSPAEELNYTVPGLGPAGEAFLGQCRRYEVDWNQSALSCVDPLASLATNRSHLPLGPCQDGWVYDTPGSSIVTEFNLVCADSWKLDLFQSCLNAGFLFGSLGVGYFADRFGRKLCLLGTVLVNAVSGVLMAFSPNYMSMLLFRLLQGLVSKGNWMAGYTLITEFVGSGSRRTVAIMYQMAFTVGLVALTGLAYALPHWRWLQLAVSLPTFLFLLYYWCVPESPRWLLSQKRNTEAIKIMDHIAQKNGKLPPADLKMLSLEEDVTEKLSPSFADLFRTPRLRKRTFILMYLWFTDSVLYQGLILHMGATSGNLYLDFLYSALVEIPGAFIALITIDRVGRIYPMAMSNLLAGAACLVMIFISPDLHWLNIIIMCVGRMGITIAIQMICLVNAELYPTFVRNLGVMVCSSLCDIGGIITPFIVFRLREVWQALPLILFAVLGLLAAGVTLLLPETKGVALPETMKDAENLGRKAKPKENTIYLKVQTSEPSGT

[2] = biological target: T1, Solute carrier family 22 member 1; assay: TP_TRANSPORTER: inhibition of MPP+ uptake (MPP+: 0.85 uM, Verapamil: 5000 uM) in Xenopus laevis oocytes; format: functional, cell-based; conditions: oocyte
[3] = biological target: T1, Solute carrier family 22 member 1; assay: TP_TRANSPORTER: inhibition of MPP+ uptake (MPP+: 0.85 uM, Thymidine: 5000 uM) in Xenopus laevis oocytes; format: functional, cell-based; conditions: oocyte
[4] = biological target: T1, Solute carrier family 22 member 1; assay: TP_TRANSPORTER: inhibition of MPP+ uptake (MPP+: 0.15 uM, Inosine: 1000 uM) in Xenopus laevis oocytes; format: functional, cell-based; conditions: oocyte
[5] = biological target: T1, Solute carrier family 22 member 1; assay: TP_TRANSPORTER: inhibition of MPP+ uptake (MPP+: 0.85 uM, NMN: 5000 uM) in Xenopus laevis oocytes; format: functional, cell-based; conditions: oocyte
[6] = biological target: T1, Solute carrier family 22 member 1; assay: TP_TRANSPORTER: inhibition of MPP+ uptake (MPP+: 0.85 uM, Pancuronium: 1000 uM) in Xenopus laevis oocytes; format: functional, cell-based; conditions: oocyte
[7] = biological target: T1, Solute carrier family 22 member 1; assay: TP_TRANSPORTER: inhibition of MPP+ uptake (MPP+: 0.85 uM, Procainamide: 5000 uM) in Xenopus laevis oocytes; format: functional, cell-based; conditions: oocyte
[8] = biological target: T1, Solute carrier family 22 member 1; assay: TP_TRANSPORTER: inhibition of MPP+ uptake (MPP+: 0.85 uM, Quinidine: 1000 uM) in Xenopus laevis oocytes; format: functional, cell-based; conditions: oocyte
[9] = biological target: T1, Solute carrier family 22 member 1; assay: TP_TRANSPORTER: inhibition of MPP+ uptake (MPP+: 0.85 uM, Quinine: 1000 uM) in Xenopus laevis oocytes; format: functional, cell-based; conditions: oocyte
[10] = substrate: C[n+]1ccc(-c2ccccc2)cc1; assay: TP_TRANSPORTER: uptake in Xenopus laevis oocytes; format: functional, cell-based, Oocyte

With CCN1/C(=C/c2ccc3ccccc3[n+]2CC)C=Cc2ccccc21 the Ki [1] was 4.4 µM.

With COc1ccc(CCN(C)CCCC(C#N)(c2ccc(OC)c(OC)c2)C(C)C)cc1OC (configuration not stated) the Activity [2] was “inhibitor [+]”.

In the case of Cc1cn([C@H]2C[C@H](O)[C@@H](CO)O2)c(=O)[nH]c1=O [DOXRIBTIMINE], the Activity [3] is reported as “inhibitor [+]”.

In the case of OC[C@H]1O[C@@H](n2cnc3c(O)ncnc32)[C@H](O)[C@@H]1O [INOSINE], the Activity [4] is reported as “inhibitor [+]”.

With CNC(=O)c1cccnc1 [NICOTINYL METHYLAMIDE] the Activity [5] was “inhibitor [+]”.

With CC(=O)O[C@H]1C[C@@H]2CC[C@@H]3[C@H](CC[C@@]4(C)[C@H]3C[C@H]([N+]3(C)CCCCC3)[C@@H]4OC(C)=O)[C@@]2(C)C[C@@H]1[N+]1(C)CCCCC1 [PANCURONIUM] the Activity [6] was “inhibitor [+]”.

In the case of CCN(CC)CCNC(=O)c1ccc(N)cc1 [PROCAINAMIDE], the Activity [7] is reported as “inhibitor [+]”.

For C=C[C@H]1C[N@@]2CC[C@H]1C[C@@H]2[C@@H](O)c1ccnc2ccc(OC)cc12 [QUINIDINE], the Activity [8] was “inhibitor [+]”.

For C=C[C@H]1C[N@@]2CC[C@H]1C[C@H]2[C@H](O)c1ccnc2ccc(OC)cc12 [QUININE], the Activity [9] was “inhibitor [+]”.

In the case of CC[N+](CC)(CC)CC [TETRYLAMMONIUM], the Ki [1] is reported as 163 µM.

CC(=O)O[C@H]1C[C@@H]2CC[C@@H]3[C@H](CC[C@@]4(C)[C@H]3C[C@H]([N+]3(C)CCCCC3)[C@@H]4OC(C)=O)[C@@]2(C)C[C@@H]1N1CCCCC1 [VECURONIUM] gave a Ki [1] of 120 µM.

B1: Solute carrier family 22 member 1 (Homo sapiens) (protein)
chain: MPTVDDILEQVGESGWFQKQAFLILCLLSAAFAPICVGIVFLGFTPDHHCQSPGVAELSQRCGWSPAEELNYTVPGLGPAGEAFLGQCRRYEVDWNQSALSCVDPLASLATNRSHLPLGPCQDGWVYDTPGSSIVTEFNLVCADSWKLDLFQSCLNAGFLFGSLGVGYFADRFGRKLCLLGTVLVNAVSGVLMAFSPNYMSMLLFRLLQGLVSKGNWMAGYTLITEFVGSGSRRTVAIMYQMAFTVGLVALTGLAYALPHWRWLQLAVSLPTFLFLLYYWCVPESPRWLLSQKRNTEAIKIMDHIAQKNGKLPPADLKMLSLEEDVTEKLSPSFADLFRTPRLRKRTFILMYLWFTDSVLYQGLILHMGATSGNLYLDFLYSALVEIPGAFIALITIDRVGRIYPMAMSNLLAGAACLVMIFISPDLHWLNIIIMCVGRMGITIAIQMICLVNAELYPTFVRNLGVMVCSSLCDIGGIITPFIVFRLREVWQALPLILFAVLGLLAAGVTLLLPETKGVALPETMKDAENLGRKAKPKENTIYLKVQTSEPSGT
B1 gave a Km [10] of 14.6 µM.
